Reference: ChEMBL document CHEMBL1177779, “Development of dual functional SPECT/fluorescent probes for imaging cerebral beta-amyloid plaques” (Bioorg Med Chem Lett, 2010)
Blank lines part the entries; values can stand above or below the compound they belong to.

What was measured:
[1] = Displacement of [125I]IMPY from amyloid beta (1-42) after 3 hrs by gamma counting
Blood [2] = assay: Biodistribution in ddY mouse blood assessed per gram of tissue at 7.77 KBq, iv after 2 mins by gamma counting; type: ADME, organism-based; settings: in vivo
Blood [3] = assay: Biodistribution in ddY mouse blood assessed per gram of tissue at 7.77 KBq, iv after 10 mins by gamma counting; type: ADME, organism-based; settings: in vivo
Blood [4] = assay: Biodistribution in ddY mouse blood assessed per gram of tissue at 7.77 KBq, iv after 30 mins by gamma counting; type: ADME, organism-based; settings: in vivo, 0.5 h
Blood [5] = assay: Biodistribution in ddY mouse blood assessed per gram of tissue at 7.77 KBq, iv after 60 mins by gamma counting; type: ADME, organism-based; settings: in vivo, 1 h
Liver [6] = assay: Biodistribution in ddY mouse liver assessed per gram of tissue at 7.77 KBq, iv after 2 mins by gamma counting; type: ADME, organism-based; settings: in vivo
Liver [7] = assay: Biodistribution in ddY mouse liver assessed per gram of tissue at 7.77 KBq, iv after 10 mins by gamma counting; type: ADME, organism-based; settings: in vivo
Liver [8] = assay: Biodistribution in ddY mouse liver assessed per gram of tissue at 7.77 KBq, iv after 30 mins by gamma counting; type: ADME, organism-based; settings: in vivo, 0.5 h
Liver [9] = assay: Biodistribution in ddY mouse liver assessed per gram of tissue at 7.77 KBq, iv after 60 mins by gamma counting; type: ADME, organism-based; settings: in vivo, 1 h
Kidney [10] = assay: Biodistribution in ddY mouse kidney assessed per gram of tissue at 7.77 KBq, iv after 2 mins by gamma counting; type: ADME, organism-based; settings: in vivo
Kidney [11] = assay: Biodistribution in ddY mouse kidney assessed per gram of tissue at 7.77 KBq, iv after 10 mins by gamma counting; type: ADME, organism-based; settings: in vivo
Kidney [12] = assay: Biodistribution in ddY mouse kidney assessed per gram of tissue at 7.77 KBq, iv after 30 mins by gamma counting; type: ADME, organism-based; settings: in vivo, 0.5 h
Kidney [13] = assay: Biodistribution in ddY mouse kidney assessed per gram of tissue at 7.77 KBq, iv after 60 mins by gamma counting; type: ADME, organism-based; settings: in vivo, 1 h
Intestine [14] = assay: Biodistribution in ddY mouse intestine assessed per gram of tissue at 7.77 KBq, iv after 2 mins by gamma counting; type: ADME, organism-based; settings: in vivo
Intestine [15] = assay: Biodistribution in ddY mouse intestine assessed per gram of tissue at 7.77 KBq, iv after 10 mins by gamma counting; type: ADME, organism-based; settings: in vivo
Intestine [16] = assay: Biodistribution in ddY mouse intestine assessed per gram of tissue at 7.77 KBq, iv after 30 mins by gamma counting; type: ADME, organism-based; settings: in vivo, 0.5 h
Intestine [17] = assay: Biodistribution in ddY mouse intestine assessed per gram of tissue at 7.77 KBq, iv after 60 mins by gamma counting; type: ADME, organism-based; settings: in vivo, 1 h
Spleen [18] = assay: Biodistribution in ddY mouse spleen assessed per gram of tissue at 7.77 KBq, iv after 2 mins by gamma counting; type: ADME, organism-based; settings: in vivo
Spleen [19] = assay: Biodistribution in ddY mouse spleen assessed per gram of tissue at 7.77 KBq, iv after 10 mins by gamma counting; type: ADME, organism-based; settings: in vivo
Spleen [20] = assay: Biodistribution in ddY mouse spleen assessed per gram of tissue at 7.77 KBq, iv after 30 mins by gamma counting; type: ADME, organism-based; settings: in vivo, 0.5 h
Spleen [21] = assay: Biodistribution in ddY mouse spleen assessed per gram of tissue at 7.77 KBq, iv after 60 mins by gamma counting; type: ADME, organism-based; settings: in vivo, 1 h
Pancreas [22] = assay: Biodistribution in ddY mouse pancreas assessed per gram of tissue at 7.77 KBq, iv after 2 mins by gamma counting; type: ADME, organism-based; settings: in vivo
Pancreas [23] = assay: Biodistribution in ddY mouse pancreas assessed per gram of tissue at 7.77 KBq, iv after 10 mins by gamma counting; type: ADME, organism-based; settings: in vivo
Pancreas [24] = assay: Biodistribution in ddY mouse pancreas assessed per gram of tissue at 7.77 KBq, iv after 30 mins by gamma counting; type: ADME, organism-based; settings: in vivo, 0.5 h
Pancreas [25] = assay: Biodistribution in ddY mouse pancreas assessed per gram of tissue at 7.77 KBq, iv after 60 mins by gamma counting; type: ADME, organism-based; settings: in vivo, 1 h
Heart [26] = assay: Biodistribution in ddY mouse heart assessed per gram of tissue at 7.77 KBq, iv after 2 mins by gamma counting; type: ADME, organism-based; settings: in vivo
Heart [27] = assay: Biodistribution in ddY mouse heart assessed per gram of tissue at 7.77 KBq, iv after 10 mins by gamma counting; type: ADME, organism-based; settings: in vivo
Heart [28] = assay: Biodistribution in ddY mouse heart assessed per gram of tissue at 7.77 KBq, iv after 30 mins by gamma counting; type: ADME, organism-based; settings: in vivo, 0.5 h
Heart [29] = assay: Biodistribution in ddY mouse heart assessed per gram of tissue at 7.77 KBq, iv after 60 mins by gamma counting; type: ADME, organism-based; settings: in vivo, 1 h
Stomach [30] = assay: Biodistribution in ddY mouse stomach assessed per organ at 7.77 KBq, iv after 2 mins by gamma counting; type: ADME, organism-based; settings: in vivo
Stomach [31] = assay: Biodistribution in ddY mouse stomach assessed per organ at 7.77 KBq, iv after 10 mins by gamma counting; type: ADME, organism-based; settings: in vivo
Stomach [32] = assay: Biodistribution in ddY mouse stomach assessed per organ at 7.77 KBq, iv after 30 mins by gamma counting; type: ADME, organism-based; settings: in vivo, 0.5 h
Stomach [33] = assay: Biodistribution in ddY mouse stomach assessed per organ at 7.77 KBq, iv after 60 mins by gamma counting; type: ADME, organism-based; settings: in vivo, 1 h
Brain [34] = assay: Biodistribution in ddY mouse brain assessed per gram of tissue at 7.77 KBq, iv after 2 mins by gamma counting; type: ADME, organism-based; settings: in vivo
Brain [35] = assay: Biodistribution in ddY mouse brain assessed per gram of tissue at 7.77 KBq, iv after 10 mins by gamma counting; type: ADME, organism-based; settings: in vivo
Brain [36] = assay: Biodistribution in ddY mouse brain assessed per gram of tissue at 7.77 KBq, iv after 30 mins by gamma counting; type: ADME, organism-based; settings: in vivo, 0.5 h
Brain [37] = assay: Biodistribution in ddY mouse brain assessed per gram of tissue at 7.77 KBq, iv after 60 mins by gamma counting; type: ADME, organism-based; settings: in vivo, 1 h

Ki [1]: 108 nM | inhibition [1]: Dose-dependent effect
SMILES: CC1=CC(C)=[N+]2C1=Cc1ccc(/C=C/c3ccc(-c4ccc(I)cc4)s3)n1[B-]2(F)F

Drug uptake (Blood [2]): 11.67 % ID/g | Drug uptake (Blood [3]): 4.09 % ID/g | Drug uptake (Blood [4]): 3.09 % ID/g | Drug uptake (Blood [5]): 2.44 % ID/g | Drug uptake (Liver [6]): 35.51 % ID/g | Drug uptake (Liver [7]): 46.02 % ID/g | Drug uptake (Liver [8]): 45.87 % ID/g | Drug uptake (Liver [9]): 45.78 % ID/g | Drug uptake (Kidney [10]): 5.39 % ID/g | Drug uptake (Kidney [11]): 4.79 % ID/g | Drug uptake (Kidney [12]): 4.46 % ID/g | Drug uptake (Kidney [13]): 4.43 % ID/g | Drug uptake (Intestine [14]): 0.48 % ID/g | Drug uptake (Intestine [15]): 0.93 % ID/g | Drug uptake (Intestine [16]): 1.91 % ID/g | Drug uptake (Intestine [17]): 3.04 % ID/g | Drug uptake (Spleen [18]): 16.12 % ID/g | Drug uptake (Spleen [19]): 26.9 % ID/g | Drug uptake (Spleen [20]): 28.21 % ID/g | Drug uptake (Spleen [21]): 21.52 % ID/g | Drug uptake (Pancreas [22]): 1.19 % ID/g | Drug uptake (Pancreas [23]): 0.74 % ID/g | Drug uptake (Pancreas [24]): 0.72 % ID/g | Drug uptake (Pancreas [25]): 0.92 % ID/g | Drug uptake (Heart [26]): 5.59 % ID/g | Drug uptake (Heart [27]): 2.95 % ID/g | Drug uptake (Heart [28]): 2.31 % ID/g | Drug uptake (Heart [29]): 2.3 % ID/g | Drug uptake (Stomach [30]): 1.4 %ID | Drug uptake (Stomach [31]): 4.73 %ID | Drug uptake (Stomach [32]): 4.79 %ID | Drug uptake (Stomach [33]): 5.5 %ID | Drug uptake (Brain [34]): 0.4 % ID/g | Drug uptake (Brain [35]): 0.19 % ID/g | Drug uptake (Brain [36]): 0.14 % ID/g | Drug uptake (Brain [37]): 0.14 % ID/g
SMILES: CC1=CC(C)=[N+]2C1=Cc1ccc(/C=C/c3ccc(-c4ccc([125I])cc4)s3)n1[B-]2(F)F
